≈ marks a conversion by molar mass, not a printed value.
Assays:
Vero [1] = assay: Minimum cytotoxic compound concentration to induce microscopically detectable alteration of cell morphology, using Vero cell line; format: functional, Chlorocebus sabaeus
Vero [2] = assay: Compound concentration to reduce virus cytopathic effect by 50% tested against herpes simplex virus-1(KOS) using Vero cell line; format: functional, cell-based; conditions: Chlorocebus sabaeus
HEL = assay: Compound concentration to reduce virus plague formation by 50% tested against human cytomegalovirus laboratory strains Davis using HEL cell line; format: functional, cell-based
Vero [3] = assay: Compound concentration to reduce virus cytopathic effect by 50% tested against herpes simplex […] using Vero cell line; format: functional, cell-based; conditions: Chlorocebus sabaeus
MRC5 [4] = assay: Cytotoxic compound concentration to reduce neutral red uptake by 50% using MRC-5 cell line; format: functional, Homo sapiens
MRC5 [5] = assay: Compound concentration to reduce virus plague formation by 50% tested against human cytomegalovirus laboratory strains P8 using MRC-5 cell line; format: functional, cell-based
MRC5 [6] = assay: Compound concentration to reduce virus plague formation by 50% tested against human cytomegalovirus laboratory strains Ad169 using MRC-5 cell line; format: functional, cell-based

With `O=C1NCc2ccccc2OCCC/C=C/c2cncc3ccc1nc23` as the compound, how does the “minimum cytotoxic concentration (MCC)” value (Vero [1]) read?
Its value is 25 µg/mL.

What about the IC50 (Vero [2]) of the same compound?
The IC50 was 0.098 µg/mL (≈ 0.284 µM).

And the IC50 (HEL)?
The IC50 was 3 ng/mL (≈ 0.00869 µM).

And the IC50 (Vero [3])?
Its IC50 is 0.004 µg/mL (≈ 0.0116 µM).

And the CC50% (MRC5 [4])?
Its CC50% is 0.2 µg/mL (≈ 0.579 µM).

For `O=C1NCc2ccccc2OCC/C=C/c2cncc3ccc1nc23`, which “minimum cytotoxic concentration (MCC)” value (Vero [1]) is on record?
Its value is 6 µg/mL.

And the IC50 (Vero [2])?
Its IC50 is 0.391 µg/mL (≈ 1.18 µM).

And the IC50 (HEL)?
Its IC50 is under 1.5 ng/mL.

What about the IC50 (Vero [3]) of the same compound?
The IC50 was 0.009 µg/mL (≈ 0.0272 µM).

And the IC50 (MRC5 [5])?
The IC50 was 0.0052 µg/mL (≈ 0.0157 µM).

What about the IC50 (MRC5 [6]) of the same compound?
Its IC50 is 0.0006 µg/mL (≈ 0.00181 µM).

What about the CC50% (MRC5 [4]) of the same compound?
The CC50% was 1.8 µg/mL (≈ 5.43 µM).

For `Cc1cncc2ccc(C(=O)NCc3ccccc3OC(C)C)nc12`, which IC50 (MRC5 [5]) is on record?
The IC50 was 0.13 µg/mL (≈ 0.388 µM).

What about the IC50 (MRC5 [6]) of the same compound?
Its IC50 is 0.09 µg/mL (≈ 0.268 µM).

What about the CC50% (MRC5 [4]) of the same compound?
The CC50% was 2.4 µg/mL (≈ 7.16 µM).

What does the source list for `Nc1ccn(C[C@@H](CO)OCP(=O)(O)O)c(=O)n1.O.O` [CIDOFOVIR]?
minimum cytotoxic concentration (MCC) (Vero [1]): >100 µg/mL; IC50 (Vero [2]): 3.94 µg/mL; IC50 (Vero [3]): 1.28 µg/mL

With `Nc1nc2c(ncn2COC(CO)CO)c(=O)[nH]1` [GANCICLOVIR] as the compound, how does the “minimum cytotoxic concentration (MCC)” value (Vero [1]) read?
The value was over 100 µg/mL.

What about the IC50 (Vero [2]) of the same compound?
Its IC50 is 1.27 µg/mL (≈ 4.99 µM).

And the IC50 (HEL)?
The IC50 was 2700 ng/mL (≈ 10.6 µM).

What about the IC50 (Vero [3]) of the same compound?
Its IC50 is 1.22 µg/mL (≈ 4.78 µM).

And the IC50 (MRC5 [5])?
The IC50 was 1.2 µg/mL (≈ 4.7 µM).

What about the IC50 (MRC5 [6]) of the same compound?
Its IC50 is 2.2 µg/mL (≈ 8.62 µM).

What about the CC50% (MRC5 [4]) of the same compound?
The CC50% was over 1000 µg/mL.
